Test results as given in US20260102420A1, “CANCER IMMUNOTHERAPY” (Hoffmann-La Roche Inc., priority 2022, published 2026).

How the values were obtained:
CD3+ T cells = test: T cell activation (CD25/CD69) by flow cytometry after co-culture with pre-treated MKN45; format: cell-based, human; settings: CD3+ T cells from the same co-cultures; FIGS. 9D and 9E
Method: (§1) FIGS. 9A, 9B, 9C, 9D, and 9E. UAP1 inhibition with Ac4Glc2Bz in tumor cells improves T cell-mediated killing and T cell activation. FIG. 9A: Detection of UDP-HexNAc in MKN45 cell lysates after 2h treatment with Ac4Glc2Bz. FIGS. 9B and 9C: MKN45 were pre-treated with the indicated concentrations of Ac4Glc2Bz for 2 h. Afterwards, the compound was removed from the culture and T cells were added alongside TCBs at the indicated concentrations. Graphs show the % of remaining tumor cells after 105h from co-culture. DP47 TCB was used as negative control. FIGS. 9D and 9E: Flow cytometry of CD3+ T cells from the experiments in FIGS. 9B and 9C. T cell activation was assessed as previously described.
T cell-mediated killing assay was performed as described above. At the end of the experiment, T cells were collected from the co-culture plates and subjected to immunofluorescence for the following markers: CD3, CD8, CD25, CD69 and Near-IR live/dead staining (Thermo Scientific). Cells were gated on live CD3^+ cells and % Activated cells was calculated as such: […]. For the proliferation assay, T cells were pre-stained with CFSE (Biolegend) according to manufacturer's instructions, and then used in a T cell-mediated killing assay with either MKN45-NLR wt or MKN45-NLR KO cells for 4 days. Afterwards, cells were harvested and CFSE was assessed by FACS. […]

UAP1 = target: T1, UAP1 (Homo sapiens, UniProt Q16222); test: Detection of UDP-HexNAc by LC-MS in MKN45 cell lysates after 2h treatment; format: cell-based; settings: MKN45 pre-treated for 2h, FIG. 9A
T1 construct: endogenous in cells; host or cells: MKN45 (human gastric adenocarcinoma cell line), wild type
Method: as §1
For the preparation of calibration samples Uridine-5′-diphospho-N-acetylglucosamine sodium salt was dissolved in an 80/20 mixture of water/methanol (v/v) to a concentration of 1.00 mg/ml. A stock solution for the preparation of QC samples was prepared separately using the same procedure with separate weighing of the reference substance. Further dilutions were done in water. For calibration and quality control samples, eight and three different concentrations of Uridine-5′-diphospho-N-acetylglucosamine (UDP HExNAc) spiked into phosphate-buffered saline (PBS) were used, respectively. Two different calibration ranges were applied. […]

MKN45 = test: T cell-mediated killing assay, MKN45 pre-treated with compound, co-culture with T cells and TCBs; format: cell-based, human; settings: MKN45 pre-treated 2 h, compound removed, T cells and TCBs added; FIGS. 9B and 9C
Method: as §1
25000 MKN45-nuclight red (NLR), 20000 A549-hCEA and 10000 B16F10-NLR tumor cells (wt or UAP1 ko) were seeded in one well of a 96 well-plate. Afterwards TCBs or siinfekl were given at the indicated concentrations. Pan T cells or PBMCs, mouse splenocytes (from C57/BL6 or OT-I mice) were immediately added at the indicated E:T ratios. Co-cultures were incubated at 37° C. and 5% C02 in the Incucye S3 instrument (Sartorius) for the indicated time. […] For MKN45-NLR and B16F10-NLR, T cell-mediated killing was calculated based on the red fluorescent signal coming from the tumor cells. All values were first transformed to fold-change to time 0, and % specific lysis was calculated as follows: […]

T1 sequence (Q16222 whole entry): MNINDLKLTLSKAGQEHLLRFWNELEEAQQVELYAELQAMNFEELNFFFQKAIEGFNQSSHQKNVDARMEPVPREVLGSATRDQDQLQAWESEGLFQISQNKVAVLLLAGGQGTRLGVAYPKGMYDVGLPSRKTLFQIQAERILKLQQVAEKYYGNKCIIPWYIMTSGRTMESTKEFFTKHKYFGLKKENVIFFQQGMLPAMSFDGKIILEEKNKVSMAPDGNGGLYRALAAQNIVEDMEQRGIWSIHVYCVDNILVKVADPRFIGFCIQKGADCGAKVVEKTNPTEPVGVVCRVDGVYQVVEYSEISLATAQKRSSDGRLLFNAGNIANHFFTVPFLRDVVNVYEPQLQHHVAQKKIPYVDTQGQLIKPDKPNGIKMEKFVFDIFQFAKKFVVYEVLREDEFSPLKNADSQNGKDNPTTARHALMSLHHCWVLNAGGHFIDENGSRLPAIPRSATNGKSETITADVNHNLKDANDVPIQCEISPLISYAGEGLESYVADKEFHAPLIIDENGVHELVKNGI

- inhibition of UAP1 (UDP-HexNAc detection) (UAP1): dose-dependent inhibition of UAP1
Structure (SMILES): CC(=O)OCC1OC(OC(C)=O)C(NC(=O)c2ccccc2)C(OC(C)=O)[C@@H]1OC(C)=O (stereo partly drawn) [Ac4Glc2Bz]
- T cell activation (CD3+ T cells): increased
- T cell mediated killing (MKN45): increased T cell mediated killing
